Results as given in patent US20030181520A1, “Methods of reversing and preventing cardiovascular pathologies” (priority 2001, published 2003).

Columns and labels:
VCAM-1 = VCAM-1 gene expression inhibition; format: cell-based; settings: compound A at low micromolar concentrations, probucol at very high concentrations
MCP-1 = MCP-1 gene expression inhibition; format: cell-based; settings: compound A at low micromolar concentrations, probucol at very high concentrations
[1] = test system: coronary artery opening at the site of angioplasty; test: Clinical trial: minimal luminal area by intravascular ultrasound (IVUS) six months after angioplasty; format: in vivo, human; settings: for mean minimal luminal area: IVUS six months after angioplasty
Description: (§1) The primary endpoint of the trial was the size of the lumenal area (coronary artery opening), as measured by intravascular ultrasound (IVUS), six months after angioplasty. […] Angiographic restenosis was also assessed using a standard definition of restenosis as measured by quantitative coronary angiography (QCA). […] An IVUS analysis of reference vessels (blood vessels of coronary arteries that were not targets of angioplasty procedures) was also carried out. The data indicated lumen volumes increased for patients who received either of the top two doses of Compound A. In contrast, patients on placebo had decreased lumen volumes, consistent with the expected progression of atherosclerosis.
A study was conducted to determine whether Compound A reduces restenosis as assessed by intravascular ultrasound (IVUS) when administered for 2 weeks before and 4 weeks after percutaneous coronary intervention (PCI) with or without stent placement. A multi-center, double-blind placebo-controlled randomized trail with 5 treatment groups:
(§2) Treatment of the above was given 2 weeks prior to and 4 weeks after PCI. PCI was performed on greater than or equal to 1 native artery with greater than or equal to 1 de novo lesion of greater than or equal to 50%. All PCI procedures (with or without stent placement) and post-PCI management were performed according to recognized current clinical practice. 0.3 mg of nitroglycerin(Ntg) intracoronary (IC) were administered at every angiogram. Quantitative Coronary Angiography (QCA) measurements were taken prior to-PCI, 10 minutes post-PCI, and final follow-up (approximately 6 months).
(§3) IVUS examinations were conducted at 30 Mhz using 3.5 French CVIS catheters. All IVUS examinations were preceded by IC Ntg 0.3 mg. Results of these examinations are found in FIGS. 1-6.

[2] = Anti-inflammatory activity (preclinical comparison)
QTc interval = test: Clinical trial: QTc interval; format: in vivo, human
[3] = test system: reference vessels (coronary arteries that were not targets of angioplasty); test: Clinical trial: IVUS analysis of lumen volume of reference vessels (non-PCI site); format: in vivo, human; settings: for lumen volume change of reference vessels: IVUS, non-PCI site
Description: as §1, §3

[4] = Antioxidant activity (preclinical comparison)
stented arteries = test: Clinical trial: angiographic restenosis by quantitative coronary angiography (QCA); format: in vivo, human; settings: for rate of angiographic restenosis in stented arteries: QCA; for restenosis rate reduction: relative to placebo (37.5 percent); for restenosis after PCI: treatment 2 weeks before and 4 weeks after PCI
Description: as §1, §2

Structure (SMILES)	inhibition of VCAM-1 gene expression (VCAM-1)	inhibition of MCP-1 gene expression (MCP-1)	mean minimal luminal area ([1]; 70 mg once a day for six weeks) [mm2]	mean minimal luminal area ([1]; 140 mg once a day for six weeks) [mm2]	mean minimal luminal area ([1]; 280 mg once a day for six weeks, p<0.05 vs. placebo) [mm2]	luminal area at the site of angioplasty ([1]; at two weeks, p<0.05)	activity as an anti-inflammatory agent [2]	prolongation of the QTc interval (QTc interval)	lumen volume change of reference vessels ([3]; 70 mg once a day) [mm3]	lumen volume change of reference vessels ([3]; 140 mg once a day)	lumen volume change of reference vessels ([3]; 280 mg once a day)	lumen dimensions of the reference segments ([3]; in contrast to probucol)	antioxidant properties [4]	rate of angiographic restenosis in stented arteries (stented arteries; combined Compound A arms (70, 140, 280 mg once a day)) [%]	restenosis rate reduction (stented arteries; combined Compound A arms) [%]	restenosis after PCI (stented arteries)	mean minimal luminal area ([1]; probucol 500 mg twice a day for six weeks) [mm2]	lumen volume change of reference vessels ([3]; probucol 500 mg twice a day) [mm3]	restenosis rate reduction (stented arteries; probucol 500 mg twice a day) [%]	rate of angiographic restenosis in stented arteries (stented arteries; probucol 500 mg twice a day) [%]
CC(C)(Sc1cc(C(C)(C)C)c(O)c(C(C)(C)C)c1)Sc1cc(C(C)(C)C)c(OC(=O)CCC(=O)O)c(C(C)(C)C)c1 [Compound A, Butanedioic acid, mono [4-[[1-[[3,5-bis(1,1-dimethylethyl)-4-hydroxyphenyl]thio]-1-methylethyl]thio]2,6-bis(1,1-dimethylethyl)phenyl]ester]	very active inhibitor	very active inhibitor	2.75	3.17	3.36	dose response improvement	consistently very effective	without causing prolongation	−2.4	+3.5 mm3	+1.8 mm3	surprising improvement	equipotent to probucol	26.0	31	reduce restenosis	–	–	–	–
CC(C)(Sc1cc(C(C)(C)C)c(O)c(C(C)(C)C)c1)Sc1cc(C(C)(C)C)c(O)c(C(C)(C)C)c1 [Probucol, probucol, reference compound]	inactive	inactive	–	–	–	–	–	–	–	–	–	–	–	–	–	reduce restenosis	3.69	−0.2	32	25.5
